Results from ChEMBL document CHEMBL1949658, “3D-QSAR and 3D-QSSR models of negative allosteric modulators facilitate the design of a novel selective antagonist of human α4β2 neuronal nicotinic acetylcholine receptors” (Bioorg Med Chem Lett, 2012).

Experiments:
[1] = target: Neuronal acetylcholine receptor; alpha4/beta2 (Homo sapiens, UniProt P17787+P43681); experiment: Antagonist activity at human nAChR alpha4/beta2 receptor expressed in HEK ts201 cells assessed as calcium accumulation by fluorescence analysis; assay type: functional, cell-based
[2] = target: Neuronal acetylcholine receptor; alpha3/beta4 (Homo sapiens, UniProt P30926+P32297); experiment: Antagonist activity at human nAChR alpha3/beta4 receptor expressed in HEK ts201 cells assessed as calcium accumulation by fluorescence analysis; assay type: functional, cell-based
Homo sapiens = species on record: Homo sapiens; experiment: Selectivity ratio of pIC50 for human nAChR alpha3/beta4 receptor to pIC50 for human nAChR alpha4/beta2 receptor

Chain of Neuronal acetylcholine receptor; alpha4/beta2 (P17787 whole entry): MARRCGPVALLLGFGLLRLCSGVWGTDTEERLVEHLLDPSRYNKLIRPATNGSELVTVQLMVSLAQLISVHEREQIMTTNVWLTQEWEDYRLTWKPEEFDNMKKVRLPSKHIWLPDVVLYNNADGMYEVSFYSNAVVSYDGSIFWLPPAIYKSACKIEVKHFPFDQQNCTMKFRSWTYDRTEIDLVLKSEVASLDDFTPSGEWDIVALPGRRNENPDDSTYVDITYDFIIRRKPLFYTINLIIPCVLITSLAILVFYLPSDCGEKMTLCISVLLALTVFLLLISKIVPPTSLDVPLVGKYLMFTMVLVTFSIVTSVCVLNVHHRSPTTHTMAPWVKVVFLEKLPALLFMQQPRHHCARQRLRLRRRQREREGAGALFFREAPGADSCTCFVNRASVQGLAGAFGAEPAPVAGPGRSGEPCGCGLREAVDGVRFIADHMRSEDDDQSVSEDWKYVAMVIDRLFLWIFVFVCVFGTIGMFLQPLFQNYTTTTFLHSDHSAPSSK
Chain of Neuronal acetylcholine receptor; alpha4/beta2 (P43681 whole entry): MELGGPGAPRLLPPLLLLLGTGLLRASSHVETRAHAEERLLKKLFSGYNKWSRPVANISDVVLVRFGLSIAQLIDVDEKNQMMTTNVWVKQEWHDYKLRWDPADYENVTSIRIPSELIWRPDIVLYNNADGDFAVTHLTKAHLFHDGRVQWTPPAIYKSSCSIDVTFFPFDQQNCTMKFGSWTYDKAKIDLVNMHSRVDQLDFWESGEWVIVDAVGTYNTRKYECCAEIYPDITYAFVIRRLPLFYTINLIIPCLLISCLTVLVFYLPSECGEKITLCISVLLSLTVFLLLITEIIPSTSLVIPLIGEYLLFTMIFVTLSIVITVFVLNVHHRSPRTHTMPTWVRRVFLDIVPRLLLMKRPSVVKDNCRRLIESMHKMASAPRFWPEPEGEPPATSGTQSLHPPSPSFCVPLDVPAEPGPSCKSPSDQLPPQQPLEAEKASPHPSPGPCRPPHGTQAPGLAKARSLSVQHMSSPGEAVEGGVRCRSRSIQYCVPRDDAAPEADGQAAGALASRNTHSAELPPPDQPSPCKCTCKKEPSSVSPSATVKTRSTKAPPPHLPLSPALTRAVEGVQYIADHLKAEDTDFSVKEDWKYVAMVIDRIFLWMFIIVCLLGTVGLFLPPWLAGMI
Chain of Neuronal acetylcholine receptor; alpha3/beta4 (P30926 whole entry): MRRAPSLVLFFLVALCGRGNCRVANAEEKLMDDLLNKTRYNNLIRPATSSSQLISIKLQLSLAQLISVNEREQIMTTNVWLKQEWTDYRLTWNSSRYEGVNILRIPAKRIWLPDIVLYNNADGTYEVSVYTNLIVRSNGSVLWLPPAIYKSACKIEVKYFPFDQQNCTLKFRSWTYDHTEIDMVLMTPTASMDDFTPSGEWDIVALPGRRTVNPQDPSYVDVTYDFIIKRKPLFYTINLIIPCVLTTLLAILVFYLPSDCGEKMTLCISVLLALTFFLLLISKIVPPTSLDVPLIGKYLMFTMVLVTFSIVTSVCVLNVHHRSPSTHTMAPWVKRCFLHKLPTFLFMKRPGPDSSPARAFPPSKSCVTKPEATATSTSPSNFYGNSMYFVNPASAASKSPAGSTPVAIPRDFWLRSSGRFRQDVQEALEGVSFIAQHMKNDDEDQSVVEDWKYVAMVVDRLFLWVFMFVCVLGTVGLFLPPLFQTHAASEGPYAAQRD
Chain of Neuronal acetylcholine receptor; alpha3/beta4 (P32297 whole entry): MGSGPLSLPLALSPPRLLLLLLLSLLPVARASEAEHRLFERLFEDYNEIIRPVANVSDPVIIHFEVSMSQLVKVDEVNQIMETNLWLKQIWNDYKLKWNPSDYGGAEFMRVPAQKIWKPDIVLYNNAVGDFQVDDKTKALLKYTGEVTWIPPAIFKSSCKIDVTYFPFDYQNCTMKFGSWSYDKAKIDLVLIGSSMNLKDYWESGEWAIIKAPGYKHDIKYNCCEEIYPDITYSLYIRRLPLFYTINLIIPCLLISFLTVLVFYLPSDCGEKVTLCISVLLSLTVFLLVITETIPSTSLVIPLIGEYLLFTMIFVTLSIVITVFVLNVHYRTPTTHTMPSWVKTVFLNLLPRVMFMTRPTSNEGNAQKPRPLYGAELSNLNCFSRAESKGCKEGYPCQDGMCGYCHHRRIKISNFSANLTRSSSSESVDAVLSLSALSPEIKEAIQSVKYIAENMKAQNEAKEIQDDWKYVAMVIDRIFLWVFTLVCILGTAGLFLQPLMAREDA

Compound | IC50 ([1]; read-out: pIC50 (converted)) | IC50 ([2]; read-out: pIC50 (converted)) | Ratio pIC50 (Homo sapiens) | IC50 ([1]; read-out: IC50) | IC50 ([2]; read-out: IC50)
c1ccc(CCCN2CCCC(COCc3ccccc3-c3ccccc3)C2)cc1 (stereo unspecified) | 12.6 µM | 15.5 µM | 0.09 |  | 
CC1CC(=O)N(c2ccccc2C(=O)OCC2CCCN(CCc3c[nH]c4ccccc34)C2)C1=O (stereo unspecified) | 5.62 µM | 74.1 µM | 1.12 |  | 
COc1ccc(OCCCCCN2CCCC(COC(=O)c3coc4ccccc4c3=O)C2)cc1 (stereo unspecified) | 10 µM |  |  |  | 
O=C(OCC1CCCN(CCCc2ccccc2)C1)c1ccccc1N1C(=O)c2ccccc2C1=O (single isomer, unassigned) | 5.01 µM | 5.89 µM | 0.07 |  | 
O=C(OCC1CCCN(C(=O)CCc2ccccc2)C1)c1ccccc1-c1ccccc1 (stereo unspecified) | 6.03 µM | 331 µM | 1.74 | 5.6 µM | > 100 µM
COc1cccc(OCCCCCN2CCCC(COC(=O)c3ccccc3N3C(=O)CC(C)C3=O)C2)c1OC (stereo unspecified) | 8.71 µM |  |  |  | 
COc1ccc(OCCCCCN2CCCC(COC(=O)c3cc(=O)c4ccccc4o3)C2)cc1 (stereo unspecified) | 10.2 µM |  |  |  | 
CC1CC(=O)N(c2ccccc2C(=O)OCC2CCCN(CCOc3cccc(-c4ccccc4)c3)C2)C1=O (stereo unspecified) | 7.24 µM | 26.9 µM | 0.57 |  | 
CC1CC(=O)N(c2ccccc2C(=O)OCC2CCCN(CCCCOc3ccccc3)C2)C1=O (stereo unspecified) | 1.7 µM |  |  |  | 
O=C(OCC1CCCN(CCCc2ccccc2)C1)c1ccccc1-c1cccc2ccccc12 (stereo unspecified) |  |  | 0.73 |  | 
CC1CC(=O)N(c2ccccc2C(=O)OCC2CCCN(CCCCCc3ccccc3)C2)C1=O (stereo unspecified) | 24.5 µM | 4.17 µM | -0.77 |  | 
CC(C)N1CC(OC(=O)c2ccccc2-c2ccccc2)C2CC1C1OC(C)(C)OC21 (stereo unspecified) | 9.55 µM |  |  |  | 
O=C(OCC1CCCN(CCCc2ccccc2)C1)c1ccc(-c2ccccc2)cc1 (stereo unspecified) | 6.31 µM | 18.6 µM | 0.47 |  | 
CO[C@@H]1C[C@H](OC)C[C@@H](OCCN2CCCC(COC(=O)c3ccccc3N3C(=O)CC(C)C3=O)C2)C1 (stereo partly specified) | 12.6 µM | 41.7 µM | 0.68 |  | 
CC(C)N1CCCC(COC(=O)c2ccccc2N2C(=O)CC(Cc3ccccc3)C2=O)C1 (stereo unspecified) | 8.91 µM |  |  |  | 
CC1CC(=O)N(c2ccccc2C(=O)OCC2CCCN(CCCC3CCCCC3)C2)C1=O (stereo unspecified) | 14.5 µM | 10.7 µM | -0.14 |  | 
CC1(C)OC2C3CC(C2O1)N(CCCc1ccccc1)CC3OC(=O)c1ccccc1-c1ccccc1 (stereo unspecified) | 11.5 µM | 13.8 µM | 0.08 |  | 
COc1ccc(CC2CC(=O)N(c3ccccc3C(=O)OCC3CCCN(CCCc4ccccc4)C3)C2=O)cc1 (stereo unspecified) | 38.9 µM | 28.8 µM | -0.13 |  | 
O=C(OCC1CCCNC1)c1ccccc1-c1ccccc1 (single isomer, unassigned) | 7.08 µM | 8.13 µM | 0.06 |  | 
CC(=O)Nc1ccccc1C(=O)OCC1CCCN(CCCc2ccccc2)C1 (stereo unspecified) | 5.5 µM | 4.27 µM | -0.11 |  | 
CN1CCCC(COC(=O)c2ccccc2-c2ccccc2)C1 (single isomer, unassigned) | 6.92 µM | 4.79 µM | -0.16 |  | 
CC1CC(=O)N(c2ccccc2C(=O)OCC2CCCN(CCCCCOc3ccc(Cl)c(Cl)c3)C2)C1=O (stereo unspecified) | 17.4 µM | 9.12 µM | -0.28 |  | 

Compound | IC50 ([1]; read-out: pIC50 (converted)) | IC50 ([2]; read-out: pIC50 (converted)) | Ratio pIC50 (Homo sapiens) | IC50 ([1]; read-out: IC50) | IC50 ([2]; read-out: IC50)
COc1ccc(OCCCCCN2CCCC(COC(=O)c3ccccc3N3C(=O)CC(C)C3=O)C2)cc1OC (stereo unspecified) | 8.32 µM | 2000 µM | 2.38 |  | 
COc1ccccc1C(=O)OCC1CCCN(CCCc2ccccc2)C1 (single isomer, unassigned) | 7.94 µM | 12 µM | 0.19 |  | 
CC1CC(=O)N(c2ccccc2C(=O)OCC2CCCN(CCOc3cccc4ccccc34)C2)C1=O (stereo unspecified) | 3.89 µM | 15.8 µM | 0.61 |  | 
CC1CC(=O)N(c2ccccc2C(=O)OCC2CCCN(CCOc3cccc(Cl)c3)C2)C1=O (stereo unspecified) | 21.9 µM | 11.5 µM | 0.14 |  | 
CC1CC(=O)N(c2ccccc2C(=O)OC[C@@H]2C[C@H](c3ccccc3)CN(CCCc3ccccc3)C2)C1=O (stereo partly specified) | 5.37 µM |  |  |  | 
O=C(NCc1ccccc1-c1ccccc1)C1CCCN(CCCc2ccccc2)C1 (single isomer, unassigned) | 16.6 µM | 14.5 µM | -0.06 |  | 
CC1CC(=O)N(c2ccccc2C(=O)OCC2CCCN(CCOc3ccc4ccccc4c3)C2)C1=O (stereo unspecified) | 7.41 µM | 6.76 µM | -0.04 |  | 
O=C(OCC1CCCN(CCCc2ccccc2)C1)c1ccccc1Cl (single isomer, unassigned) | 9.33 µM | 22.9 µM | 0.39 |  | 
O=C(OCC1CCN(CCCc2ccccc2)CC1)c1ccccc1-c1ccccc1 |  |  | 0.11 | 8.1 µM | 10.5 µM
O=C(OCC1CCCN(CCCn2cc(-c3ccccc3)nn2)C1)c1ccccc1-c1ccccc1 (single isomer, unassigned) | 6.46 µM | 389 µM | 1.78 |  | 
CC1CC(=O)N(c2ccccc2C(=O)OCC2CCCN(CCCCCOc3ccccc3)C2)C1=O (stereo unspecified) | 17 µM |  |  |  | 
COc1ccc(OCCCCCN2CCCC(COC(=O)c3ccccc3N3C(=O)CC(C)C3=O)C2)cc1 (stereo unspecified) | 14.5 µM |  |  |  | 
O=C(CCc1ccccc1)N1CCCC(CN(Cc2ccccc2-c2ccccc2)Cc2ccccc2-c2ccccc2)C1 (stereo unspecified) | 20.9 µM | 40.7 µM | 0.29 |  | 
CC1CC(=O)N(c2ccccc2C(=O)OCC2CCCN(CCCCCCc3ccccc3)C2)C1=O (stereo unspecified) | 29.5 µM |  |  |  | 
CC1CC(=O)N(c2ccccc2C(=O)OCC2CCCN(CCOc3ccc(Cl)c(Cl)c3)C2)C1=O (stereo unspecified) | 15.1 µM | 17.4 µM | 0.06 |  | 
CC1CC(=O)N(c2ccccc2C(=O)OCC2CCCN(CCCCOc3ccc(Cl)c(Cl)c3)C2)C1=O (stereo unspecified) | 12.3 µM | 74.1 µM | 0.78 |  | 
O=C(OCC1CCCN(CCc2ccccc2)C1)c1ccccc1N1C(=O)CC(Cc2ccccc2)C1=O (stereo unspecified) | 4.47 µM | 11.7 µM | 0.42 |  | 
O=C(OCC1CCCN(CCCc2ccccc2)C1)c1ccccc1C(F)(F)F (single isomer, unassigned) |  |  | -0.16 | 8 µM | 5.5 µM
O=C(OCC1CCCN(CCCc2ccccc2)C1)c1ccccc1N1C(=O)CC(CCc2ccccc2)C1=O (stereo unspecified) | 5.13 µM | 33.1 µM | 0.81 |  | 
O=C(OC1CCCN(CCCc2ccccc2)C1)c1ccccc1-c1ccccc1 (single isomer, unassigned) |  |  |  | 6.5 µM | 2.7 µM
O=C(OCC1CCCN(CCCc2ccccc2)C1)c1ccccc1-n1cc(-c2ccccc2)nn1 (single isomer, unassigned) | 2.82 µM | 4.27 µM | 0.19 |  | 
COc1ccc(OCCCCCN2CCCC(COC(=O)c3ccccc3-c3ccccc3)C2)cc1 (stereo unspecified) | 14.5 µM | 22.4 µM |  |  | 

Compound | IC50 ([1]; read-out: pIC50 (converted)) | IC50 ([2]; read-out: pIC50 (converted)) | Ratio pIC50 (Homo sapiens) | IC50 ([1]; read-out: IC50) | IC50 ([2]; read-out: IC50)
C[C@@H]1CC(=O)N(c2ccccc2C(=O)OC[C@@H]2CCCN(CCCc3ccccc3)C2)C1=O | 8.91 µM | 9.55 µM | 0.02 |  | 
c1ccc(CCCN2CCCC(COCc3cn(Cc4ccccc4-c4ccccc4)nn3)C2)cc1 (stereo unspecified) | 2.88 µM | 7.24 µM | 0.39 |  | 
O=C(CCC1CCCNC1)c1ccccc1-c1ccccc1 (stereo unspecified) | 9.12 µM | 6.61 µM | -0.14 |  | 
[N-]=[N+]=NCCCN1CCCC(COC(=O)c2ccccc2-c2ccccc2)C1 (single isomer, unassigned) | 4.27 µM | 1.82 µM | -0.38 |  | 
O=C(OCc1ccccc1-c1ccccc1)C1CCCN(CCCc2ccccc2)C1 (single isomer, unassigned) | 17.8 µM | 10.2 µM | 0.24 |  | 
CC1CC(=O)N(c2ccccc2C(=O)OC[C@@H]2C[C@H](C3CCCCC3)CN(CCCc3ccccc3)C2)C1=O (stereo partly specified) | 39.8 µM | 85.1 µM | 0.33 |  | 
CC1(C)CC(=O)N(c2ccccc2C(=O)OCC2CCCN(CCCc3ccccc3)C2)C1=O (single isomer, unassigned) | 4.9 µM | 5.01 µM | 0.01 |  | 
CC1CC(=O)N(c2ccccc2C(=O)CCC2CCCN(CCCCOc3ccc(C(F)(F)F)cc3)C2)C1=O (stereo unspecified) | 7.08 µM |  |  |  | 
O=C(NCC1CCCN(CCCc2ccccc2)C1)c1ccccc1-c1ccccc1 (single isomer, unassigned) | 20 µM |  | 3.7 |  | 
C[C@H]1CC(=O)N(c2ccccc2C(=O)OC[C@H]2CCCN(CCCc3ccccc3)C2)C1=O | 10.5 µM | 11 µM | 0.02 |  | 
O=C(OCC1CCCN(CCCc2ccccc2)C1)c1ccccc1N1C(=O)CC(Cc2ccc(Cl)cc2)C1=O (stereo unspecified) | 10.7 µM | 14.5 µM | 0.14 |  | 
O=C(OCC1CCCN(CCCCCOc2ccc(Cl)cc2)C1)c1ccccc1-c1ccccc1 (stereo unspecified) | 14.5 µM | 15.5 µM | 0.02 |  | 
O=C(OCC1=CCCN(CCCc2ccccc2)C1)c1ccccc1N1C(=O)CC(Cc2ccccc2)C1=O (stereo unspecified) | 5.13 µM | 3.72 µM | -0.14 |  | 
COc1ccc(OCCN2CCCC(COC(=O)c3ccccc3N3C(=O)CC(C)C3=O)C2)cc1 (stereo unspecified) | 66.1 µM | 12 µM | -0.75 |  | 
CCN1CC(OC(=O)c2ccccc2N2C(=O)CC(C)C2=O)C2CC1C1OC(C)(C)OC21 (stereo unspecified) | 12 µM | 77.6 µM | 0.81 |  | 
C[N+]1(C)CCCC(COC(=O)c2ccccc2-c2ccccc2)C1 (single isomer, unassigned) | 2.4 µM | 6.46 µM | 0.43 |  | 
CCN1CCCC(COC(=O)c2ccccc2N2C(=O)CC(Cc3ccccc3)C2=O)C1 (stereo unspecified) | 4.47 µM | 11.7 µM | 0.42 |  | 
c1ccc(-c2ccccc2COCC2CCCNC2)cc1 (stereo unspecified) | 4.17 µM |  |  |  | 
CC1CC(=O)N(c2ccccc2C(=O)OC2CN(CCCc3ccccc3)C3CC2C2OC(C)(C)OC23)C1=O (stereo unspecified) |  | 30.9 µM |  |  | 
CC1CC(=O)N(c2ccccc2C(=O)OC2CN(C(C)C)C3CC2C2OC(C)(C)OC23)C1=O (stereo unspecified) | 7.59 µM |  |  |  | 
